Measured values as given in ChEMBL document CHEMBL1201862, “PubChem BioAssay data set” (2004).
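Values below derive from 48-hour exposures of cells grown in 96-well plates, with endpoints linearly interpolated between the two concentrations bracketing the appropriate inhibition level. At the GI50, growth is halved.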 Activity calls are given as the source filed them. Rule as the data show it: active = GI50 up to about 1.1 µM and inactive = higher.

Tests used:
Assay in all cases: growth of human tumour cells (NCI), 48 h
RXF 393 = system: RXF 393
OVCAR-3 = system: OVCAR-3
HOP-92 = system: HOP-92
NCI-H460 = system: NCI-H460
MOLT-4 = system: MOLT-4
EKVX = system: EKVX
A549 = system: A549
HCT-15 = system: HCT-15
MCF7 = system: MCF7
SN12C = system: SN12C
HT-29 = system: HT-29
SW-620 = system: SW-620
SF-268 = system: SF-268
786-0 = system: 786-0
T47D = system: T47D
SF-539 = system: SF-539
SNB-19 = system: SNB-19
HOP-62 = system: HOP-62
UO-31 = system: UO-31
ACHN = system: ACHN
SK-MEL-2 = system: SK-MEL-2
SNB-75 = system: SNB-75
HL-60 = system: HL-60
CCRF-CEM = system: CCRF-CEM
MDA-MB-231 = system: MDA-MB-231
SK-MEL-5 = system: SK-MEL-5
Malme-3M = system: Malme-3M
NCI-H226 = system: NCI-H226
OVCAR-8 = system: OVCAR-8
IGROV-1 = system: IGROV-1
PC-3 = system: PC-3
DU-145 = system: DU-145
UACC-62 = system: UACC-62
KM12 = system: KM12
MDA-N = system: MDA-N
K562 = system: K562
SK-MEL-28 = system: SK-MEL-28
SF-295 = system: SF-295
LOX IMVI = system: LOX IMVI
HCC 2998 = system: HCC 2998
M14 = system: M14
A498 = system: A498
OVCAR-5 = system: OVCAR-5
BT-549 = system: BT-549
Hs-578T = system: Hs-578T
SK-OV-3 = system: SK-OV-3
UACC-257 = system: UACC-257
TK-10 = system: TK-10
SR = system: SR
CAKI-1 = system: CAKI-1
NCI/ADR-RES = system: NCI/ADR-RES
NCI-H23 = system: NCI-H23
NCI-H522 = system: NCI-H522
COLO 205 = system: COLO 205
MDA-MB-435 = system: MDA-MB-435
RPMI-8226 = system: RPMI-8226
U-251 = system: U-251
HCT-116 = system: HCT-116
OVCAR-4 = system: OVCAR-4

Measured: GI50

O=C1C=C(N2CCCC2)C(=O)c2c(O)ccc(O)c21
inactive: RXF 393 > 10 µM | OVCAR-3 > 10 µM | HOP-92 > 10 µM | NCI-H460 > 10 µM | MOLT-4 2.37 µM | EKVX > 10 µM | A549 > 10 µM | MCF7 9.57 µM | SN12C > 10 µM | HT-29 > 10 µM | SW-620 > 10 µM | SF-268 > 10 µM | 786-0 > 10 µM | T47D > 10 µM | SF-539 > 10 µM | SNB-19 > 10 µM | HOP-62 > 10 µM | UO-31 > 10 µM | ACHN > 10 µM | SK-MEL-2 > 10 µM | SNB-75 > 10 µM | HL-60 4.52 µM | CCRF-CEM 1.71 µM | MDA-MB-231 > 10 µM | SK-MEL-5 4.6 µM | Malme-3M 3.93 µM | NCI-H226 > 10 µM | OVCAR-8 > 10 µM | IGROV-1 > 10 µM | PC-3 > 10 µM | DU-145 > 10 µM | UACC-62 7.28 µM | KM12 > 10 µM | MDA-N > 10 µM | K562 2.92 µM | SK-MEL-28 > 10 µM | SF-295 > 10 µM | LOX IMVI > 10 µM | HCC 2998 > 10 µM | M14 6.32 µM | A498 > 10 µM | OVCAR-5 > 10 µM | BT-549 > 10 µM | Hs-578T > 10 µM | SK-OV-3 > 10 µM | UACC-257 > 10 µM | TK-10 > 10 µM
> 10 µM: HCT-15

CC(=O)Oc1cc(S(=O)(=O)Nc2n[nH]c(Nc3ccc(C)cc3)n2)c(S)cc1Cl
> 100 µM: HCT-15
inactive: SR 66.7 µM | OVCAR-3 > 100 µM | HOP-92 > 100 µM | NCI-H460 > 100 µM | MOLT-4 83.2 µM | CAKI-1 > 100 µM | EKVX > 100 µM | A549 > 100 µM | SN12C > 100 µM | NCI/ADR-RES > 100 µM | HT-29 > 100 µM | SW-620 > 100 µM | 786-0 > 100 µM | T47D > 100 µM | SF-539 > 100 µM | NCI-H23 > 100 µM | NCI-H522 92 µM | SNB-19 > 100 µM | UO-31 > 100 µM | ACHN 54.8 µM | SK-MEL-2 > 100 µM | HL-60 45.7 µM | COLO 205 > 100 µM | CCRF-CEM 94.8 µM | MDA-MB-231 51.1 µM | SK-MEL-5 > 100 µM | Malme-3M > 100 µM | MDA-MB-435 > 100 µM | OVCAR-8 > 100 µM | IGROV-1 > 100 µM | RPMI-8226 > 100 µM | PC-3 > 100 µM | DU-145 > 100 µM | UACC-62 > 100 µM | KM12 > 100 µM | U-251 > 100 µM | MDA-N > 100 µM | K562 68.1 µM | SK-MEL-28 > 100 µM | SF-295 > 100 µM | LOX IMVI > 100 µM | HCT-116 > 100 µM | M14 > 100 µM | A498 > 100 µM | OVCAR-5 > 100 µM | BT-549 > 100 µM | Hs-578T 79.3 µM | UACC-257 > 100 µM | OVCAR-4 > 100 µM | TK-10 > 100 µM

COC(=O)[C@@]1(NC(=O)C(CC(=O)OC(C)(C)C)NC(=O)OC(C)(C)C)C[C@H]1C (stereo partly drawn)
inactive: RXF 393 > 100 µM | OVCAR-3 > 100 µM | NCI-H460 > 100 µM | MOLT-4 > 100 µM | CAKI-1 > 100 µM | EKVX > 100 µM | A549 > 100 µM | MCF7 > 100 µM | SN12C > 100 µM | NCI/ADR-RES > 100 µM | HT-29 > 100 µM | SW-620 > 100 µM | SF-268 > 100 µM | 786-0 > 100 µM | T47D > 100 µM | SF-539 > 100 µM | NCI-H23 > 100 µM | NCI-H522 > 100 µM | SNB-19 > 100 µM | HOP-62 > 100 µM | UO-31 > 100 µM | ACHN > 100 µM | SK-MEL-2 > 100 µM | SNB-75 > 100 µM | COLO 205 > 100 µM | CCRF-CEM > 100 µM | MDA-MB-231 > 100 µM | SK-MEL-5 > 100 µM | Malme-3M > 100 µM | MDA-MB-435 > 100 µM | NCI-H226 > 100 µM | OVCAR-8 > 100 µM | IGROV-1 > 100 µM | RPMI-8226 > 100 µM | PC-3 > 100 µM | DU-145 > 100 µM | UACC-62 > 100 µM | KM12 > 100 µM | U-251 > 100 µM | MDA-N > 100 µM | K562 > 100 µM | SK-MEL-28 > 100 µM | SF-295 > 100 µM | LOX IMVI > 100 µM | HCT-116 > 100 µM | HCC 2998 > 100 µM | M14 > 100 µM | A498 > 100 µM | OVCAR-5 > 100 µM | BT-549 > 100 µM | Hs-578T > 100 µM | SK-OV-3 > 100 µM | UACC-257 > 100 µM | OVCAR-4 > 100 µM | TK-10 > 100 µM
> 100 µM: HCT-15

O=C1C=C(Nc2cccnc2)c2ccccc2/C1=N/O
active: HL-60 0.789 µM
inactive: RXF 393 33.7 µM | OVCAR-3 1.81 µM | HOP-92 21.8 µM | NCI-H460 22.8 µM | MOLT-4 15.7 µM | CAKI-1 40.4 µM | EKVX 14.7 µM | A549 39.6 µM | MCF7 21.6 µM | SN12C 34.4 µM | NCI/ADR-RES 21.5 µM | HT-29 11.1 µM | SW-620 18.3 µM | SF-268 9.77 µM | 786-0 57.7 µM | T47D 30.1 µM | SF-539 18.5 µM | NCI-H23 19.7 µM | NCI-H522 9.89 µM | SNB-19 1.38 µM | HOP-62 23 µM | UO-31 21 µM | ACHN 23.2 µM | SK-MEL-2 31.3 µM | SNB-75 5.69 µM | COLO 205 19.4 µM | CCRF-CEM 5.85 µM | MDA-MB-231 16.7 µM | SK-MEL-5 4.67 µM | MDA-MB-435 12.7 µM | NCI-H226 58.7 µM | OVCAR-8 21.5 µM | IGROV-1 13.6 µM | RPMI-8226 38 µM | PC-3 19.5 µM | DU-145 50.5 µM | UACC-62 20.9 µM | KM12 13.6 µM | U-251 26.3 µM | MDA-N 12.6 µM | K562 24.7 µM | SF-295 39.2 µM | LOX IMVI 26.3 µM | HCT-116 26.6 µM | HCC 2998 22.5 µM | M14 23.2 µM | A498 41.3 µM | OVCAR-5 > 100 µM | BT-549 34.1 µM | Hs-578T 33.4 µM | SK-OV-3 46.2 µM | UACC-257 33.1 µM | OVCAR-4 19.6 µM | TK-10 > 100 µM
15.2 µM: HCT-15

Cc1c2c(c(C)n1-c1ccccc1)C(=O)N(CCSC(=N)N)C2=O
> 100 µM: HCT-15
inactive: RXF 393 40.2 µM | OVCAR-3 > 100 µM | HOP-92 > 100 µM | NCI-H460 12.3 µM | MOLT-4 14.2 µM | CAKI-1 50 µM | EKVX 9.75 µM | A549 > 100 µM | MCF7 32.1 µM | SN12C > 100 µM | NCI/ADR-RES 59.6 µM | HT-29 > 100 µM | SW-620 > 100 µM | SF-268 > 100 µM | 786-0 > 100 µM | T47D 1.9 µM | SF-539 > 100 µM | NCI-H23 4.85 µM | NCI-H522 35.7 µM | SNB-19 > 100 µM | HOP-62 83.6 µM | UO-31 > 100 µM | ACHN 32.6 µM | SK-MEL-2 31.4 µM | SNB-75 15.6 µM | HL-60 > 100 µM | COLO 205 > 100 µM | CCRF-CEM > 100 µM | MDA-MB-231 > 100 µM | SK-MEL-5 1.96 µM | Malme-3M > 100 µM | MDA-MB-435 93.3 µM | NCI-H226 > 100 µM | OVCAR-8 62.2 µM | IGROV-1 > 100 µM | RPMI-8226 > 100 µM | PC-3 > 100 µM | DU-145 > 100 µM | UACC-62 > 100 µM | KM12 > 100 µM | U-251 68.9 µM | MDA-N > 100 µM | K562 > 100 µM | SK-MEL-28 > 100 µM | SF-295 22.6 µM | HCT-116 > 100 µM | HCC 2998 > 100 µM | M14 > 100 µM | A498 32.4 µM | OVCAR-5 > 100 µM | BT-549 > 100 µM | Hs-578T > 100 µM | SK-OV-3 > 100 µM | UACC-257 28.8 µM | OVCAR-4 9.29 µM | TK-10 > 100 µM
